Patent US20140303260A1, “PHARMACEUTICAL COMPOSITIONS OF RESVERATROL” (NAD Life Pty Ltd, priority 2011, published 2014)

Assays:
blood NAD levels = experiment: NAD levels in a test group of subjects after administration of resveratrol, buccal/sublingual composition versus oral; type: in vivo, human
Method: A 35% increased blood NAD level was sustained at 4 hrs compared to baseline. […] The comparison of the effect on NAD levels between oral administration of resveratrol and buccal/sublingual membrane administration of resveratrol is best shown in FIG. 3. This graph depicts the difference in the change in a subject's NAD levels (in ng/mL) when resveratrol is administered orally (absorption through the gastrointestinal tract) compared to when resveratrol is administrated by the pharmaceutical composition of the present invention (absorption through the buccal/sublingual membranes).

[1] = cited from earlier work

Oc1ccc(C=Cc2cc(O)cc(O)c2)cc1 [resveratrol]
increase in blood NAD levels (blood NAD levels; absorption through buccal/sublingual membranes (FIG. 1), at 1 hr (60 min)): 41% | increased blood NAD level sustained compared to baseline (blood NAD levels; absorption through buccal/sublingual membranes, at 4 hrs): 35% | change in blood NAD levels (blood NAD levels; delivered via powdered slurry (gastrointestinal absorption alone)): No observable change | level of NAD after oral administration (blood NAD levels; oral, absorbed through the gastrointestinal tract (FIG. 2), in only some of the people in the group): only a mild increase | solubility in aqueous solutions [1]: almost insoluble
